Results on 37 compounds are retold here after patent US10252987B2, “Type of antiviral compound” (Institute of Medicinal Biotechnology, Chinese Academy of …, priority 2015, dated 2019).

The subject of this experiment is HCV. Description: anti-HCV activity assay in cell culture (HCV RNA by one-step quantitative RT-PCR). To be noted: compound at 10 μmol/L, Huh7.5 cells infected with HCV virus particles, cultured 96 hrs, HCV RNA in cells vs virus control group; for inhibition at 10 µM: Hepatitis C virus, Huh7.5, 96 h, read-out: percent inhibition (%). The experiment is classed as cell-based. As to the method: The assay results of anti-HCV activity of the compound synthesized according to the present invention in cell culture are shown in Table 1, wherein the molecular weight is calculated by ChemBioDraw 12.0 software from the molecular structure of each compound.
100 μL Huh7.5 cells were seeded in 96-well cell culture plate to 1×10^5/mL density, cultured in an incubator at 37° C. under the condition of 5% CO2 and saturated humidity for 6 hrs. Huh7.5 cells were then infected by viral solution containing HCV virus particles, and solutions of compound of the present invention at a concentration of 10 μmol/L liquid were added respectively, cultured for further 96 hrs, and then total RNA was extracted from the cells. Amount of HCV RNA in cells was determined by one-step quantitative RT-PCR, and compared to RNA levels of the virus control group to calculate the inhibition rate of compounds on HCV.

By inhibition is commonly meant how much of the control response was suppressed.

On to `Cc1ccc(NCc2cc(N3CCN(C)CC3)ccc2C#N)cc1` [Compound 3, 4-(4-methylpiperazin-1-yl)-2-(p-methylphenylamino)methylbenzonitrile], for which the inhibition at 10 µM turned out to be 92%.
Still for that read-out and setting: under `C=CCN1CCN(c2ccc(C#N)c(CN(C)c3ccc(C(C)(C)C)cc3)c2)CC1` [Compound 19, 4-(4-allylpiperazin-1-yl)-2-((p-tert-butylphenyl)(methyl)amino)methylbenzonitrile] stands 86%.
On to `CCCN(Cc1cc(N2CCN(C)CC2)ccc1C#N)c1ccc(C(C)(C)C)cc1` [Compound 17, 4-(4-methylpiperazin-1-yl)-2-((p-tert-butylphenyl)(propyl)amino)methylbenzonitrile], for which the inhibition at 10 µM was determined as 96%.
Same read-out and setting: the same measure for `COc1ccc(N2CCN(Cc3cc(N4CCN(C)CC4)ccc3C#N)CC2)cc1` [VI-3, 4-((4-methyl)piperazin-1-yl)-2-(4-(4-methoxyphenyl)piperazin-1-yl)methylbenzonitrile]: 91%.
Still for that read-out and setting: under `CN(C)CCN(C)c1ccc(C#N)c(CN2CCN(c3ccc(N4CCCC4)cc3)CC2)c1` [VI-22, 4-((2-(dimethylamino)ethyl)(methyl)amino)-2-(4-(4-(pyrrolidin-1-yl)phenyl)piperazin-1-yl)methylbenzonitrile] stands 83%.
Same read-out and setting: under `COc1ccc(NCc2cc(NCN3CCCCC3)ccc2C#N)cc1` [Compound 31, 2-((4-methoxyphenyl)amino)methyl-4-(piperidin-1-ylmethyl)aminobenzonitrile] stands 61%; under `N#Cc1ccc(NCCN2CCCCC2)nc1CNCCCc1ccc(C2CCCC2)cc1` [Compound 34, 2-(((4-cyclopentylphenyl)propylamino)methyl)-6-(2-(piperidin-1-yl)ethyl)amino-3-cyanopyridine], 76%; under `N#Cc1ccc(N2CCNCC2)cc1CNc1ccc(Cl)cc1` [Compound 9, 4-(piperazin-1-yl)-2-(p-chlorophenylamino)methylbenzonitrile], 92%.
Take `CN1CCN(c2ccc(C#N)c(CN3CCN(c4ccc(C5CCCC5)cc4)CC3)c2)CC1` [VI-24, 4-(4-methylpiperazin-1-yl)-2-(4-(4-cyclopentylphenyl)piperazin-1-yl)methylbenzonitrile]: the inhibition at 10 µM is 59%.
On the same count and under the same terms, the same measure for `CN1CCN(c2ccc(C#N)c(CN3CCC(c4ccc(C(C)(C)C)cc4)CC3)c2)CC1` [VI-38, 4-(4-methylpiperazin-1-yl)-2-(4-(4-tert-butylphenyl)piperidin-1-yl)methylbenzonitrile]: 80%.
Take `COc1ccc(N2CCN(Cc3cc(NC(C)CN4CCCC4)ccc3C#N)CC2)cc1` (stereo not shown) [VI-46, 4-(1-(pyrrolidin-1-yl)propyl-2-yl)amino-2-(4-p-methoxyphenylpiperazin-1-yl)methylbenzonitrile]: the “percent inhibition (%)” value worked out at 95%.
Turning to `CN1CCN(c2ccc(C#N)c(CN3CCN(c4ccc(Br)cc4)CC3)c2)CC1` [VI-34, 2-(4-(4-bromophenyl)piperazin-1-yl)methyl-4-(4-methylpiperazin-1-yl)benzonitrile], the inhibition at 10 µM was found to be 91%.
`Cc1ccc(N2CCN(Cc3cc(NCCCN(C)C)ccc3C#N)CC2)cc1` [VI-26, 4-(N′,N′-dimethyl-1,3-propanediamin-1-yl)-2-(4-p-methylphenylpiperazin-1-yl)methylbenzonitrile]: the “percent inhibition (%)” value was 58%.
Consider `CCc1ccc(NCc2cc(N3CCN(C)CC3)ccc2C#N)cc1` [Compound 13, 4-(4-methylpiperazin-1-yl)-2-(p-ethylphenylamino)methylbenzonitrile], for which the inhibition at 10 µM is 87%.
Same read-out and setting: the same measure for `Cc1ccc(NCc2nc(N3CCN(C)CC3)ccc2C#N)cc1` [Compound 37, 2-((4-methylphenyl)amino)methyl-6-(4-methylpiperazin-1-yl)-3-cyanopyridine]: 72%.
Same read-out and setting: the same measure for `CSc1ccc(N2CCN(Cc3cc(N4CCN(C)CC4)ccc3C#N)CC2)cc1` [VI-17, 4-(4-methylpiperazin-1-yl)-2-(4-(4-(methylthio)phenyl)piperazin-1-yl)methylbenzonitrile]: 70%; for `COc1ccc(NCc2nc(N(C)CCN(C)C)ccc2C#N)cc1` [Compound 38, 6-((2-(dimethylamino)ethyl)(methyl)amino)-2-((4-methoxyphenyl)amino)methyl-3-cyanopyridine]: 70%.
Consider `CN(C)CNc1ccc(C#N)c(CNc2ccc(C(C)(C)C)cc2)c1` [Compound 32, 2-((4-tert-butylphenyl)amino)methyl-4-((N,N-dimethylamino)methyl)aminobenzonitrile], for which the inhibition at 10 µM turned out to be 73%.
As for `CN(C)CCN(C)c1ccc(C#N)c(CN2CCN(c3ccc(OC(F)(F)F)cc3)CC2)c1` [VI-47, 4-(N,N′,N′-trimethyl-1,2-ethylenediamin-1-yl)-2-(4-trifluoromethoxyphenylpiperazin-1-yl)methylbenzonitrile], the “percent inhibition (%)” value is reported as 93%.
`COc1ccc(N2CCN(Cc3cc(NCN4CCCCC4)ccc3C#N)CC2)cc1` [VI-2, 4-(((piperidin-1-yl)methyl)amino)-2-(4-(4-methoxyphenyl)piperazin-1-yl)methylbenzonitrile]: the inhibition at 10 µM was 62%.
On the same count and under the same terms, the same measure for `CN(C)CN(C)c1ccc(C#N)c(CN(C)c2ccc(C(C)(C)C)cc2)c1` [Compound 33, 2-((4-tert-butylphenyl)(methyl)amino)methyl-4-(((dimethylamino)methyl)(methyl)amino)benzonitrile]: 89%; for `CN1CCN(c2ccc(C#N)c(CN3CCN(c4ccc(N(C)C)cc4)CC3)c2)CC1` [VI-21, 4-(4-methylpiperazin-1-yl)-2-(4-(4-dimethylaminophenyl)piperazin-1-yl)methylbenzonitrile]: 65%.
As for `CN1CCN(c2ccc(C#N)c(CNc3ccc(C4CCCC4)cc3)n2)CC1` [Compound 35, 6-(4-methylpiperazin-1-yl)-2-((4-cyclopentylphenylamino)methyl)-3-cyanopyridine], the inhibition at 10 µM was 80%.
With `N#Cc1ccc(N2CCNCC2)cc1CNc1ccccc1` [Compound 7, 4-(piperazin-1-yl)-2-(phenylamino)methylbenzonitrile], the inhibition at 10 µM came out at 82%.
Same read-out and setting: the same measure for `CC(C)c1ccc(NCc2cc(N3CCN(C)CC3)ccc2C#N)cc1` [Compound 21, 4-(4-methylpiperazin-1-yl)-2-(p-isopropylphenylamino)methylbenzonitrile]: 90%.
As for `COc1ccc(N2CCN(Cc3cc(NCCN(C)C)ccc3C#N)CC2)cc1` [VI-1], the “percent inhibition (%)” value turned out to be 99%.
With `COc1ccc(NCc2cc(N3CCNCC3)ccc2C#N)cc1` [Compound 2, 4-(piperazin-1-yl)-2-(p-methoxyphenylamino)methylbenzonitrile], the inhibition at 10 µM was found to be 89%.
On to `CN(C)C1CCN(c2ccc(C#N)c(CN3CCN(c4ccc(Cl)cc4)CC3)c2)C1` (stereo not shown) [VI-44, 4-((3-dimethylamino)pyrrolidin-1-yl)-2-(4-p-chlorophenylpiperazin-1-yl)methylbenzonitrile], for which the “percent inhibition (%)” value turned out to be 89%.
For `COc1ccc(N(C)Cc2cc(N3CC(C)NC(C)C3)ccc2C#N)cc1` (stereo not shown) [Compound 25, 4-(3,5-dimethylpiperazin-1-yl)-2-((p-methoxyphenyl)(methyl)amino)methylbenzonitrile], the inhibition at 10 µM is 75%.
Regarding `N#Cc1ccc(N2CCNCC2)cc1CN1CCN(c2ccccc2)CC1` [VI-8, 4-(piperazin-1-yl)-2-(4-(4-phenyl)piperazin-1-yl)methylbenzonitrile], the “percent inhibition (%)” value worked out at 82%.
The same measure, in the same setting: under `CN(C)CCCNc1ccc(C#N)c(CN2CCN(c3ccc(Cl)cc3)CC2)c1` [VI-29, 4-(N′,N′-dimethyl-1,3-propanediamin-1-yl)-2-(4-p-chlorophenylpiperazin-1-yl)methylbenzonitrile] stands 80%; under `CN(C)CCCNc1ccc(C#N)c(CNc2ccc(Cl)cc2)c1` [Compound 29, 4-(N,N-dimethyl-1,3-propanediamin-1-yl)-2-(p-chlorophenylamino)methylbenzonitrile], 80%; under `COc1ccc(N2CCN(Cc3cc(N(C)CCN(C)C)ccc3C#N)CC2)cc1` [VI-31, 4-(N,N′,N′-trimethyl-1,2-ethylenediamin-1-yl)-2-(4-p-methoxyphenylpiperazin-1-yl)methylbenzonitrile], 91%.
For `CN(C)CCCNc1ccc(C#N)c(CNc2ccccc2)c1` [Compound 27, 4-(N,N-dimethyl-1,3-propanediamin-1-yl)-2-(phenylamino)methylbenzonitrile], the “percent inhibition (%)” value was 78%.
As for `Cc1cc(N2CCN(Cc3cc(N4CCNCC4)ccc3C#N)CC2)ccc1Cl` [VI-15, 4-(piperazin-1-yl)-2-(4-(3-methyl4-chlorophenyl)piperazin-1-yl)methylbenzonitrile], the inhibition at 10 µM turned out to be 95%.
Still for that read-out and setting: the same measure for `Cc1ccc(NCc2cc(NCCN3CCCCC3)ccc2C#N)cc1` [Compound 28, 4-((2-(piperidin-1-yl)ethyl)amino)-2-(p-methylphenylamino)methylbenzonitrile]: 65%; for `CCCN1CCN(c2ccc(C#N)c(CNc3ccc(Sc4ccccc4)cc3)c2)CC1` [Compound 23, 4-(4-propylpiperazin-1-yl)-2-(p-(phenylthio)phenylamino)methylbenzonitrile]: 78%.
